Source: US8133729B2, “Biomimetic urothelium” (The University of York, priority 2002, dated 2012)
Entries after “also recorded” stand apart in the source; their conditions may differ.

Experiments:
[1] = molecular target: T1, amiloride-sensitive sodium channels (Homo sapiens, UniProt P37088+P51168+P51170); assay: Polarised sodium ion channel distribution: short circuit current and transepithelial potential difference on amiloride exposure; format: cell-based
T1 construct: The exposure of the apical surface of the urothelial tissue to amiloride reduced both the voltage and the current; endogenous in cells; host or cells: in vitro cultured, differentiated human urothelial cell sheet
T1 sequence (P51170 whole entry): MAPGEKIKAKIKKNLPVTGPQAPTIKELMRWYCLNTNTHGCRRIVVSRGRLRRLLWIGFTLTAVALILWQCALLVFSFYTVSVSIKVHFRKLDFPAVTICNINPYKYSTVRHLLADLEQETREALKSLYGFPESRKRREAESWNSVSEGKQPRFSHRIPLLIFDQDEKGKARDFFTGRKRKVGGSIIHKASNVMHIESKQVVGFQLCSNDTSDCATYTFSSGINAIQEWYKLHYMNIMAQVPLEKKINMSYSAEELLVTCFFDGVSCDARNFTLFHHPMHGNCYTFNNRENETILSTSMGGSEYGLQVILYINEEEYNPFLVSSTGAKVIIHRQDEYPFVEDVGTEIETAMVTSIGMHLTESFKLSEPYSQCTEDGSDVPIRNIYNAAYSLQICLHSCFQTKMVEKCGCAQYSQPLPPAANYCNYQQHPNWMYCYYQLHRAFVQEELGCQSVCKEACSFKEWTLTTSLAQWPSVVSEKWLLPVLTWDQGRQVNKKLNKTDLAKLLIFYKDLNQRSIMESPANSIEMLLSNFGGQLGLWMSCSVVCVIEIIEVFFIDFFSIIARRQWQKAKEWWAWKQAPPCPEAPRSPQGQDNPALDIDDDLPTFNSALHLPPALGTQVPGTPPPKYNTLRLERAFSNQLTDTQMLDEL
T1 sequence (P37088 whole entry): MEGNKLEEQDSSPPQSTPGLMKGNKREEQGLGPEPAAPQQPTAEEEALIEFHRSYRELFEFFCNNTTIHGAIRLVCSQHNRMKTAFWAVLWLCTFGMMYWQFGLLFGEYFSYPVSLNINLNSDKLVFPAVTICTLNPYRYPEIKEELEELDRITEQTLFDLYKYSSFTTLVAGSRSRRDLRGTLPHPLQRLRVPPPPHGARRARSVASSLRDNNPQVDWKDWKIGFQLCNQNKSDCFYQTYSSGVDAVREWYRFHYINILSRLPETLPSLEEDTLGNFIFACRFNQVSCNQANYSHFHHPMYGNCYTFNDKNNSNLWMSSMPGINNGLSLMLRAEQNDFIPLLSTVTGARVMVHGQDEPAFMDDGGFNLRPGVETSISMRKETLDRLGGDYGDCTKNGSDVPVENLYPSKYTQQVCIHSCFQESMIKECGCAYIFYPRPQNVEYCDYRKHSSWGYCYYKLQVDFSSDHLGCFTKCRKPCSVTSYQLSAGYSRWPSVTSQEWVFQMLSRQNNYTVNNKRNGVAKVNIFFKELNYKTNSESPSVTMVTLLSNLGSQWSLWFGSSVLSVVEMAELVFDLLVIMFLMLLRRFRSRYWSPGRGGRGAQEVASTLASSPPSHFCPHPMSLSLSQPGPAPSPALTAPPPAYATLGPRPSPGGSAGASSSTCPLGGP
T1 sequence (P51168 whole entry): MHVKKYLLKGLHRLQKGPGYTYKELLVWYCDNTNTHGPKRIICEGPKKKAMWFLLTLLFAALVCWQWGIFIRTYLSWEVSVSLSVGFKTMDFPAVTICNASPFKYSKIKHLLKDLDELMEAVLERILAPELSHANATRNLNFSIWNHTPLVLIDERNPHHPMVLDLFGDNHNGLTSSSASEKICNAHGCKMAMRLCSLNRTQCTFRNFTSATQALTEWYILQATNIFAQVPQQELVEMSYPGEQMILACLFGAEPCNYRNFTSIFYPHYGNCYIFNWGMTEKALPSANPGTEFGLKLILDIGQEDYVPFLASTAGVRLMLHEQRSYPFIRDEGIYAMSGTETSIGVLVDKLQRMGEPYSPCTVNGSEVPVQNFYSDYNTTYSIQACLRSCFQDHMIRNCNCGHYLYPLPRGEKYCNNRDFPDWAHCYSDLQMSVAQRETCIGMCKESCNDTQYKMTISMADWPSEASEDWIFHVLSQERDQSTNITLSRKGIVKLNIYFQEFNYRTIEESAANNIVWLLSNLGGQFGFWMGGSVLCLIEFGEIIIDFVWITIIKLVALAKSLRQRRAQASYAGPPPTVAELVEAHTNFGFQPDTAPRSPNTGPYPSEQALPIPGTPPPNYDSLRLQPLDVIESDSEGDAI
Procedure: (§1) Polarised Sodium Ion Channel Distribution. In order to determine the presence and correct spatial location of sodium ion channels, short circuit current and transepithelial potential difference were measured under voltage and current clamped conditions respectively.

Na^+—K^+ ATPase = assay: Short circuit current and transepithelial potential difference on ouabain exposure; format: cell-based, human
Procedure: as §1

[2] = exposure of basal surface of in vitro cultivated urothelium
[3] = exposure of apical surface of in vitro cultivated urothelium

SMILES | effect on transepithelial potential difference (voltage) ([1]; exposure of apical surface of in vitro cultivated urothelium, current clamped) | effect on short circuit current ([1]; exposure of apical surface of in vitro cultivated urothelium, voltage clamped) | effect on short circuit current [1, 2] | effect on transepithelial potential difference (voltage) [1, 2] | effect on short circuit current (Na^+—K^+ ATPase; [3]) | effect on transepithelial potential difference (voltage) (Na^+—K^+ ATPase; [3]) | effect on short circuit current (Na^+—K^+ ATPase; [2]) | effect on transepithelial potential difference (voltage) (Na^+—K^+ ATPase; [2])
N=C(N)NC(=O)c1nc(Cl)c(N)nc1N [amiloride] | reduced both the voltage and the current in a dose-dependent manner | dose-responsive decrease in short circuit current; also recorded: reduced both the voltage and the current in a dose-dependent manner | did not affect either the voltage or the current | did not affect either the voltage or the current |  |  |  | 
C[C@@H]1O[C@@H](O[C@H]2C[C@@H](O)[C@]3(CO)[C@H]4[C@H](O)C[C@]5(C)[C@@H](C6=CC(=O)OC6)CC[C@]5(O)[C@@H]4CC[C@]3(O)C2)[C@H](O)[C@H](O)[C@H]1O [ouabain] |  |  |  |  | only a minor effect on the measured voltage and current | only a minor effect on the measured voltage and current | marked reduction of both voltage and current | marked reduction of both voltage and current
